Laboratory results taken from paper PMC12589708, “Structural determinants for red‐shifted absorption in higher‐plants Photosystem I” (The New Phytologist, 2025).

Assays:
Assay in all cases: cryo-EM structure
Format in all cases: binding
Lhca1‐Lhca4 = target: T1, Lhca1‐Lhca4 (Arabidopsis thaliana, UniProt P27521+Q01667); settings: PSI-LHCI supercomplex, 3.13 A; Lhca1/Lhca4 interface near Chl a615, hydrogen bond to Lhca1 Ser210
T1 construct: heterodimer within native PSI-LHCI supercomplex purified from leaves; ligand at the subunit interface
T1 sequence (Q01667 36-241): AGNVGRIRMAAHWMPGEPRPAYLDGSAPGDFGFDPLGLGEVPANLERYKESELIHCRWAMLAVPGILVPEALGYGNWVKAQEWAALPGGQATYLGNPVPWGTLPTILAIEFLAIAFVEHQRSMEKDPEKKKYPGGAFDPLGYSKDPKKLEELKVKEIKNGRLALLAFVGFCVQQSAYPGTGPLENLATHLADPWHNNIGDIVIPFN
T1 sequence (P27521 53-251): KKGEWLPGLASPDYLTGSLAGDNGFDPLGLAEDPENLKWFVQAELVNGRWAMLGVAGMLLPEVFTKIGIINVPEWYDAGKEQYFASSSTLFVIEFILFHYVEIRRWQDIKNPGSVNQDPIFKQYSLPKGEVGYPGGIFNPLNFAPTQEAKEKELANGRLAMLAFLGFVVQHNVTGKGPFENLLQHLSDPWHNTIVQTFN

Lhca2 = target: T2, Lhca2 (Arabidopsis thaliana, UniProt Q9SYW8); settings: PSI-LHCI supercomplex, 3.13 A; site L2
T2 construct: native LHCI antenna subunit within PSI-LHCI supercomplex purified from leaves (beta-DM, sucrose gradient)
T2 sequence (Q9SYW8 44-257): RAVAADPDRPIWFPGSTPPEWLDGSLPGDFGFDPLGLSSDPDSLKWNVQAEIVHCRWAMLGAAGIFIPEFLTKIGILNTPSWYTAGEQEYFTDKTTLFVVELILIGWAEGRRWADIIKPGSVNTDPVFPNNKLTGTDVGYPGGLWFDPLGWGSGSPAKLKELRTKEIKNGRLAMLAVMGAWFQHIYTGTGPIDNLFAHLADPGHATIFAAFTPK

Lhca1 = target: T3, Lhca1 (Arabidopsis thaliana, UniProt Q01667); settings: PSI-LHCI supercomplex, 3.13 A; site L2
T3 construct: native LHCI antenna subunit within PSI-LHCI supercomplex purified from leaves (beta-DM, sucrose gradient)
T3 sequence (Q01667 36-241): T1 sequence (Q01667 36-241)

Question: CC1=C[C@H](O)CC(C)(C)[C@H]1/C=C/C(C)=C/C=C/C(C)=C/C=C/C=C(C)/C=C/C=C(C)/C=C/C1=C(C)C[C@@H](O)CC1(C)C [lutein] was tested. Which cryo-EM structure (Lhca1‐Lhca4) did it give?
Answer: The cryo-EM structure was “The Lut was situated at the interface between Lhca1 and Lhca4”.

Question: How did the cryo-EM structure (Lhca2) turn out when CC(/C=C/C=C(C)/C=C/[C@@]12O[C@]1(C)C[C@@H](O)CC2(C)C)=C\C=C\C=C(C)\C=C\C=C(C)\C=C\[C@@]12O[C@]1(C)C[C@@H](O)CC2(C)C [violaxanthin] was run?
Answer: The cryo-EM structure was “significantly higher for Lhca3 and Lhca4 than for Lhca1 and Lhca2”.

Question: And the cryo-EM structure (Lhca1)?
Answer: Its cryo-EM structure is “Chl a603–Vio L2 coupling were significantly higher for Lhca3 and Lhca4 than for Lhca1”.
